According to patent US7595327B2, “Beta-sulfonamide hydroxamic acid inhibitors of tace/matrix metalloproteinase” (priority 2005, dated 2009):

Assays:
[1] = biological target: T1, recombinant human catalytic domain of MMP-1 (Homo sapiens, UniProt P03956); experiment: In-vitro fluorescence assay of MMP-1 activity; assay type: biochemical
T1 construct: The source of enzyme in the assay was the recombinant human catalytic domain of MMP-1
T1 sequence (P03956 100-269 limits assumed): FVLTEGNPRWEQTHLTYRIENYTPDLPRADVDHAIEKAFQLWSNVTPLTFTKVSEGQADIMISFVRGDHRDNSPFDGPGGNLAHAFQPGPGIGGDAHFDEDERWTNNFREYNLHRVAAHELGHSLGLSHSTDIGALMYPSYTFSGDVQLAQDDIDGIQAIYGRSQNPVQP
Description: (§1) A continuous assay was used in which the substrate is a synthetic peptide containing a fluorescent group (7-methoxycoumarin; Mca) that is quenched by energy transfer to a 2,4-dinitrophenyl group. […] The substrate used was Mca-PQGL-(3-[2,4-dinitrophenyl]-L-2,3-diaminopropionyl)-AR-OH (denoted as Wammp-5, custom synthesized by AnaSpec, Inc.). The assay buffer consisted of 50 mM Hepes (pH 7.4), 100 mM NaCl, 5 mM CaCI2, and 0.005% Brij-35. Each well of black polystyrene 96-well plates contained a 200 μL reaction mixture consisting of assay buffer, purified MMP (final concentration of 25 ng/ml, prepared by diluting with the assay buffer), and varied concentrations of inhibitor (prepared by serially diluting a given inhibitor in DMSO in 96-well polypropylene plate). […] The enzymatic reactions were initiated by adding the substrate to a final concentration of 20 μM, and mixing 10 times with a pipette. The final DMSO concentration in the assay was 6.0%.
(§2) Plots of the inhibitor concentration vs. the percent inhibition were fit to the following equation: y=(a−d)/[1+(x/c)^b]+d, a general sigmoidal curve with Hill slope, a to d. x is the inhibitor concentration under test. y is the percent inhibition. a is the limiting response as x approaches zero. As x increases without bound, y tends toward its limit d. c is the inflection point (IC50) for the curve. That is, y is halfway between the lower and upper asymptotes when x=c. b is the slope factor or Hill coefficient.

[2] = biological target: T2, recombinant human MMP-7 (Homo sapiens, UniProt P09237); experiment: In-vitro fluorescence assay of MMP-7 activity; assay type: biochemical
T2 construct: Active, recombinant human MMP-7 was purchased from Calbiochem (catalog #444270; expressed in E. coli, 19 kDa); purchased Calbiochem 444270; host or cells: E. coli
T2 sequence (P09237 95-267): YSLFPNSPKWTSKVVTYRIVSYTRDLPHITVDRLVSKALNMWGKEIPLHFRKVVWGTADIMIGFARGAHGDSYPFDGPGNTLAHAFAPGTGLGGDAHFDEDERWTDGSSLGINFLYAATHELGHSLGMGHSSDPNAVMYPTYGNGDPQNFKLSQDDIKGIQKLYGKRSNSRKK
Description: The method was similar to that for the determination of MMP-1 activity, described above, with the following differences. Active, recombinant human MMP-7 was purchased from Calbiochem (catalog #444270; expressed in E. coli, 19 kDa). […] The concentration of the substrate stock was spectrophotometrically determined using the extinction coefficient at 410 nm of 7500 M^−1 cm^−1. The assay buffer (pH 7.4) consisted of 50 mM Hepes, 100 mM NaCl, 5 mM CaCI2, and 0.005% Brij-35. […] The plates were then incubated at room temperature for 30 minutes. The enzymatic reactions were initiated by adding substrate to a final concentration of 15 μM and were mixed by pipelting up and down. The final DMSO concentration in the assay was 10% and the final, total assay volume was 200 μl. […]

[3] = system: TNF-α secretion in Raw 264.7 cells; experiment: Cell-based assay for inhibition of TNF-α secretion in Raw cells; conditions: Mus musculus, RAW264.7, LPS 100 ng/ml, 4 hr
Summary of the method: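 Confluent Raw 264.7 cells were seeded overnight, refed, and pre-incubated 1 hr with compound (0.2% final DMSO), then stimulated with LPS at 100 ng/ml final for 4 hr at 37° C. Supernatant TNF-α measured by ELISA; % inhibition and IC50 by curve fitting.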

[4] = biological target: T3, recombinant human MMP-2 (Homo sapiens, UniProt P08253); experiment: In-vitro fluorescence assay of MMP-2 activity; assay type: biochemical
T3 sequence (P08253 110-660): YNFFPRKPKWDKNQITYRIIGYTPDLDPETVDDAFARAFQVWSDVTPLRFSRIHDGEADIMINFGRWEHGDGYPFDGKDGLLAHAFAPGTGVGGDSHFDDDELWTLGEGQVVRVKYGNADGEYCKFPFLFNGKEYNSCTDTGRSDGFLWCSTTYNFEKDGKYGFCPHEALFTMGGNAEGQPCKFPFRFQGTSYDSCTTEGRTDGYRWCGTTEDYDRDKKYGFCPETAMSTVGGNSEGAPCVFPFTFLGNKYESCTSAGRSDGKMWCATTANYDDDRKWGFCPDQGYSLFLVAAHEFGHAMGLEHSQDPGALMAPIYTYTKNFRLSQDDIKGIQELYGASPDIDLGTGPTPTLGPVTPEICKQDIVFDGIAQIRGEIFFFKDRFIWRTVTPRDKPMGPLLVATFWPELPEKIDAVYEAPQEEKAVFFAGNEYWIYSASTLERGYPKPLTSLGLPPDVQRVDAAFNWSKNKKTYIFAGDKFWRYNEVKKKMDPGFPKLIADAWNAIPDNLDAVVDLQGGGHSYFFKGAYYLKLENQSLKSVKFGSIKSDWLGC
Description: as §1, §2

[5] = biological target: recombinant human MMP-8 (Homo sapiens, UniProt P22894); experiment: In-vitro fluorescence assay of MMP-8 activity
[6] = biological target: MMP-13 (Homo sapiens, UniProt P45452); experiment: In-vitro fluorescence assay of MMP-13 activity; assay type: biochemical
Description: See Knight, C. […] […].
The method was essentially the same as for the determination of MMP-1 activity, described above, except that the final concentration of purified MMP in the assay was 0.5 nM, prepared by diluting with the assay buffer.

[7] = biological target: T4, recombinant human catalytic domain of MMP-14 (Homo sapiens, UniProt P50281); experiment: In-vitro fluorescence assay of MMP-14 activity; assay type: biochemical
T4 construct: 20 kDa; purchased Chemicon International, Inc. CC1041
Description: The results were analyzed as described for MMP-13 activity, above.

[8] = system: LPS-induced TNF-α secretion in human whole blood; experiment: Human whole blood assay for LPS-induced TNF-α secretion; assay type: cell-based; conditions: Homo sapiens, LPS 100 ng/ml, read-out: TNF Secretion HWB IC50
Summary of the method: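 Fresh blood from healthy volunteers pre-incubated 1 h at 37° C with compound (final DMSO <0.2%), then stimulated with 100 ng/ml LPS for 4 h or overnight at 37° C with rotation. Supernatant TNF-α measured by ELISA; percent inhibition and IC50 derived by curve fitting.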

Chain of recombinant human MMP-8 (P22894 101-467): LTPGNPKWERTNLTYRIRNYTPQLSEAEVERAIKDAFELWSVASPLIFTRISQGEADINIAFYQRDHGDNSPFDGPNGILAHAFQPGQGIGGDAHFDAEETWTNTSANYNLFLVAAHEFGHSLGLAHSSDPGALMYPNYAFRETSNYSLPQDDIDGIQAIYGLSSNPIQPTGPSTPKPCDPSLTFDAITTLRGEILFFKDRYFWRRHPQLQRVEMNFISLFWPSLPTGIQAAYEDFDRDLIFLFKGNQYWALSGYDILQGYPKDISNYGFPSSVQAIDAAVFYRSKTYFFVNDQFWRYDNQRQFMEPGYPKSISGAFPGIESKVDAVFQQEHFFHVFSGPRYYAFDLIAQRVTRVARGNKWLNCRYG

## Cc1cc(COc2ccc(S(=O)(=O)N[C@@H]3CN(S(C)(=O)=O)C[C@@H]3C(=O)NO)cc2)c2ccccc2n1 (relative stereo) [Example 17, cis-N-Hydroxy-4-[({4-[(2-methylquinolin-4-yl)methoxy]phenyl}sulfonyl)amino]-1-(methylsulfonyl) pyrrolidine-3-carboxamide]
[1]
  IC50: > 16.7 µM
[2]
  IC50: 0.668 µM
[3]
  IC50: 0.024 µM
[4]
  IC50: > 10 µM
[5]
  IC50: > 16.7 µM
[6]
  IC50: > 10 µM
[7]
  IC50: > 16.7 µM
[8]
  IC50: 0.34 µM

## Cc1cc(COc2ccc(S(=O)(=O)N[C@@H]3CN(C=O)C[C@@H]3C(=O)NO)cc2)c2ccccc2n1 (relative stereo) [Example 20, cis-1-Formyl-N-hydroxy-4-[({4-[(2-methylquinolin-4-yl)methoxy]phenyl}sulfonyl)amino]pyrrolidine-3-carboxamide]
[1]
  IC50: > 16.7 µM
[2]
  IC50: 0.812 µM
[3]
  IC50: 0.02 µM
[4]
  IC50: > 10 µM
[5]
  IC50: > 16.7 µM
[6]
  IC50: 10.2 µM
[7]
  IC50: > 16.7 µM
[8]
  IC50: 0.12 µM

## CCNC(=O)N1C[C@H](C(=O)NO)[C@H](NS(=O)(=O)c2ccc(OCc3cc(C)nc4ccccc34)cc2)C1 (relative stereo) [Example 23, cis-1-Ethyl-N-hydroxy-4-[({4-[(2-methylquinolin-4-yl)methoxy]phenyl}sulfonyl)amino]pyrrolidine-1,3-dicarboxamide]
[1]
  IC50: > 16.7 µM
[2]
  IC50: 1.17 µM
[3]
  IC50: 0.051 µM
[4]
  IC50: > 16.7 µM
[5]
  IC50: > 16.7 µM
[6]
  IC50: > 16.7 µM
[7]
  IC50: > 16.7 µM
[8]
  IC50: 0.28 µM

## Cc1cc(COc2ccc(S(=O)(=O)N[C@H]3COC[C@H]3C(=O)NO)cc2)c2ccccc2n1 (stereo in doubt) [Example 26, (3S,4R)-4-[4-(2-Methyl-quinolin-4-ylmethoxy)-benzenesulfonylamino]-tetrahydro-furan-3-carboxylic acid hydroxyamide]
[1]
  IC50: > 16.7 µM
[2]
  IC50: 0.827 µM
[3]
  IC50: 0.012 µM
[4]
  IC50: > 16.7 µM
[5]
  IC50: > 16.7 µM
[6]
  IC50: > 16.7 µM
[7]
  IC50: > 16.7 µM
[8]
  IC50: 0.2 µM

## Cc1cc(COc2ccc(S(=O)(=O)N[C@@H]3CCC[C@@H]3C(=O)NO)cc2)c2ccccc2n1 [Example 13, (1S,2R)-N-Hydroxy-2-[({4-[(2-methylquinolin-4-yl)methoxy]phenyl}sulfonyl)amino]cyclopentanecarboxamide]
[1]
  IC50: > 16.7 µM
[2]
  IC50: 0.444 µM
[3]
  IC50: 0.009 µM
[4]
  IC50: > 10 µM
[5]
  IC50: > 16.7 µM
[6]
  IC50: > 10 µM
[7]
  IC50: > 16.7 µM
[8]
  IC50: 0.25 µM

## Cc1cc(COc2ccc(S(=O)(=O)N[C@@H]3CN(C(=O)NC(C)(C)C)CC[C@@H]3C(=O)NO)cc2)c2ccccc2n1 [Example 35, 3-[4-(2-Methyl-quinolin4-ylmethoxy)-benzenesulfonylamino]-piperidine-1,4-dicarboxylic acid 1-tert-butylamide 4-hydroxyamide]
[1]
  IC50: > 16.7 µM
[2]
  IC50: 4.62 µM
[3]
  IC50: 0.058 µM
[4]
  IC50: > 16.7 µM
[5]
  IC50: > 16.7 µM
[6]
  IC50: > 16.7 µM
[7]
  IC50: > 16.7 µM
[8]
  IC50: 0.8 µM
